Legend:
[1] = has been used as a medicament; cited from earlier work
[2] = test system: guinea pig primary culture neurons
Description: Fetal brains were taken out from guinea pigs (SLC-Hartley) that was 28 days pregnant. The cerebral cortex and hippocampus were taken out under a stereoscopic microscope, and, after removing the meninges, were treated in Hank's Balanced Salt Solution (20 ml) containing 0.25% trypsin/0.01% DNase I for 10 minutes. FCS was added to stop the reaction, and the mixture was centrifuged. The cells were dispersed in DMEM culture solution (DMEM/N2 culture solution) containing insulin 5 μg/ml, transferrin 100 μg/ml, progesterone 20 nM, putrescine 100 μM and sodium selenite 30 nM. The dispersion was filtered through double lens paper, and the filtrate was centrifuged to collect the cells. The cells were dispersed in DMEM/N2 culture solution, and inoculated in a 24-well plate at a density of 1×10^-6 cells/well. On the second day from the beginning of the cultivation, the culture solution was replaced with DMEM/N2 culture solution containing cytosine arabinoside (1 μM). After the treatment for 3 days, the culture solution was replaced with DMEM/N2 culture solution. Thereafter, the culture solution was replaced every 2 to 3 days. […] After the culture supernatant was collected, DMEM culture solution (300 μl) containing 1.2 mM MTT was added. After the reaction was carried out at 37° C. for 1 hour, an equal amount of 10% sodium dodecyl sulfate solution was added.

IMR-32 cells [3] = assay: Evaluation of the cytotoxicity, MTT method, IMR-32 cells; format: cell-based, human; conditions: 1×10^-4 (maximum concentration used)
Description: The culture supernatant was sampled, and DMEM culture solution (500 μl) containing 1.2 mM MTT {3-(4,5dimethyl-2-thiazolyl)-2,5-diphenyl-2H-tetrazolium bromide} was added. The reaction was carried out for 1 hour at 37° C., and then an equal amount of 10% sodium dodecyl sulfate solution was added. The mixture was gently stirred overnight to dissolve the resulting formazan, and then subjected to colorimetry (wavelength: 550 nm) with a plate reader.
Four wells were used per dose of the drug. The value in the data was represented as a ratio (%) to the control group. Dunnett's t test was used for the statistical analysis.

[4] = test system: Aβ production or secretion in IMR-32 cells; assay: Inhibitory activity against Aβ production or secretion in human neuroblastoma IMR-32 cells (EIA); format: cell-based; conditions: 24 hours, vs control group, mean of 4 wells, read-out: inhibition of Aβ production or secretion, based on the control group
Description: (§1) Studies on Aβ production or secretion in human-derived neurons and gliocytes are very interesting because of the relation to Alzheimer's dementia. However, human primary culture neurons and gliocytes cannot generally be used for experimental materials. IMR-32 cells were therefore used. The IMR-32 cells are human-derived neuroblastoma cells, and produce and secrete Aβ in the culture supernatant (Shinkei Kagaku (Neurochemistry) 33, 232 (1994)). In addition, Dr. Hironobu Suzuki et al. (Science, 264, 1336 (1994)) had developed an enzyme immunoassay method that can determine and distinguish between Aβ of 40 amino acids (Aβ (1-40)) and Aβ of 42 amino acids (Aβ (1-42)). This method was used to determine inhibitory activity of the test compound against Aβ production or secretion.
(§2) Human neuroblastoma IMR-32 cells were purchased from American Type Culture Collection (ATCC). Dulbecco's modified Eagle's medium (DMEM) was purchased from Nissui Pharmaceutical Co., Ltd., Japan. Fetal calf serum (hereinaftersometimes abbreviated as FCS) and a mixed solution of penicillin (5000 U/ml) and streptomycin (5 mg/ml) were purchased from Biowhittaker Inc. Phosphate buffered saline (PBS) was purchased from Flow Laboratories. Block Ace was purchased from Dainippon Pharmaceutical Co., Ltd. Bovine serum albumin (BSA) was purchased from Sigma. Flasks for culture and 48-well multi well plates were those manufactured by Falcon and Coster Corporation, respectively. Standard samples of Aβ (1-40) and Aβ (1-42) were purchased from Bachem. The other reagents used were commercially available highest quality goods.
IMR-32 cells were cultured at 37° C. in 10% carbon dioxide/90% air using 10% FCS/DMEM culture solution in a flask (Falcon, 750 ml) until the confluent growth of the cells was obtained. Then, the cells were inoculated in a 48-well multi well plate at a density of 2.5×10^5 cells/well, and cultured for 5 days. The culture solution was sucked off, and then DMEM/0.5% BSA (0.5 ml for the assay of Aβ (1-40) or 0.25 ml for the assay of Aβ (1-42)) was added. The cells were cultured for 24 hours.
In each case, the primary antibody was BAN-50 antibody that recognizes the N-terminal region of Aβ (1-40). BA-27 is an antibody prepared using Aβ (1-40) as an antigen, and recognizes the C-terminal region of Aβ (1-40). On the other hand, BC-05 antibody is an antibody prepared using Aβ (35-43) as an antigen, and recognizes the C-terminal region of Aβ (1-42) but not Aβ (1-40). Therefore, Aβ (1-40) can be assayed with a combination of BAN-50 antibody with BA-27 antibody, and Aβ (1-42) can be assayed with a combination of BAN-50 antibody with BC-05 antibody. […]

[5] = test system: Aβ (1-42) production and secretion in IMR-32 cells; assay: Inhibitory activity against Aβ (1-42) production or secretion in human neuroblastoma IMR-32 cells (EIA, BAN-50/BC-05); format: cell-based; conditions: not a significant change
Description: as §1
as §2, with “Flasks for culture and 48-well multi well plates were those manufactured by Falcon and Coster Corporation, respectively. Standard samples of Aβ (1-40) and Aβ (1-42) were purchased from Bachem. The other reagents used were commercially available highest quality goods.” left out

IMR-32 cells [6] = assay: Evaluation of the cytotoxicity, lactate dehydrogenase (LDH) method, IMR-32 cells; format: cell-based, human; conditions: 1×10^-4 (maximum concentration used)
Description: IMR-32 cells were cultured at 37° C. in 10% carbon dioxide/90% air using 10% FCS/DMEM culture solution in a flask (Falcon, 750 ml) until the confluent growth of the cells was obtained. Then, the cells were inoculated in a 48-well multi well plate at a density of 2.5×10^5 cells/well, and cultured for 5 days. […] The cells were cultured for 24 hours. […] The culture supernatant (10 μl) obtained after the assay of Aβ (1-40) was sampled, and the amount of LDH released from the cells was determined with a LDH assay kit (LDH C-II manufactured by Wako Pure Chemical Industries, Ltd.). Four wells were used per dose of the drug. The value in the data was represented as a ratio (%) to the control group. Dunnett's t test was used for the statistical analysis.

[7] = test system: Aβ (1-40) production and secretion in guinea pig primary culture neurons; assay: Inhibitory activity against Aβ (1-40) production and secretion in guinea pig primary culture neurons (EIA); format: cell-based; conditions: 3×10^-5 M, 24 hours
Description: Aβ (1-40) and Aβ (1-42) in the culture supernatant were quantified in the same manner as that described in Experiment 1.

secreted βAPP = conditions: in vitro various cells; cited from earlier work
[8] = test system: Aβ production or secretion; conditions: in vitro various cells; cited from earlier work

Row | Structure (SMILES) | toxic problems in use as a medicament [1] | cytotoxicity (MTT) [2] | cytotoxicity (formazan formed from MTT) (IMR-32 cells [3]) | inhibition at 100 µM ([4]; 1×10^-4 M) [%] | inhibition at 10 µM ([4]; 1×10^-5 M) [%] | inhibition at 30 µM ([4]; 3×10^-5 M) [%] | inhibition at 3 µM ([4]; 3×10^-6 M) [%] | Aβ (1-42) production and secretion compared to the control group ([5]; 1×10^-5 M) | Aβ (1-42) production and secretion compared to the control group ([5]; 3×10^-6 M) | cytotoxicity (LDH activity in the culture supernatant) (IMR-32 cells [6]) | production or secretion of Aβ (1-40) [7] | secreted βAPP (secreted βAPP) | Aβ production or secretion [8]
1 | CCOC(=O)C1=C[C@]2(CC)CCCN3CCc4c(n1c1ccccc41)[C@@H]32 [Vinpocetine, vinpocetine] | no toxic problems | without any cytotoxicity | only slight cytotoxicity | 45 | 30 | 40 | 10 | showed a tendency to decrease | showed a tendency to decrease | only slight cytotoxicity | inhibited production or secretion of Aβ (1-40) | – | –
2 | C[N+](C)(C)CCOC(N)=O [carbacol] | – | – | – | – | – | – | – | – | – | – | – | increase the secreted βAPP | inhibit Aβ production or secretion

— patent US5965568A, “Composition for inhibiting production or secretion of amyloid β protein to treat Down's syndrome” (priority 1995, dated 1999)
